Patent US20260265329A1, “POLYPEPTIDE AND DERIVATIVE THEREOF, COMPOSITION, AND USE THEREOF” (HANGZHOU SCIWIND BIOSCIENCES CO., LTD., priority 2023, published 2026)
Starred links: 1 amine or outer side, 2 acyl side, 3 side chain; linkers in the order of their positions; H or OH if unused. Non-standard residues stand in square brackets, D forms with d. Residues, ends and D or L forms follow the SMILES beside them. *: point of attachment. C20 diacid = O=C(O)CCCCCCCCCCCCCCCCCCC(=O)*; γGlu = O=C(O)[C@H](CCC(=O)[*:2])N[*:1]; Hyp = O=C(O)[C@@H]1C[C@@H](O)CN1

Experiments:
[1] = Heat accelerated stability assay, 40° C., detection on 7 d and 28 d; format: physicochemical; conditions: for Purity from the reversed phase chromatography-214 nm, 0 d / Purity from the reversed phase chromatography-214 nm, 7 d / Purity from the reversed phase chromatography-214 nm, 28 d: 1 mg/mL, pH about 7.4, 40° C.; for Change (7 d − 0 d): purity on 7 d − purity on 0 d; for Change (7 d − 0 d) / Change (28 d − 0 d): 40° C., pH about 7.4; for Change (28 d − 0 d): purity on 28 d − purity on 0 d
Description: The derivatives (1 mg/mL) were mixed with sodium dihydrogen phosphate (1.42 mg/mL) and dissolved in ultrapure water. After adjusting pH to about 7.4 with hydrochloric acid/sodium hydroxide, the solution was filtered into a sterilized vial in a clean bench using a 0.22 μm sterile filter. The vial was then capped and placed into the stability test chamber at 40° C. Detections were made on Days 7 (7d) and 28 (28d), and during the assay, changes in the characteristics and properties of the polypeptides were observed and recorded. The sample was then centrifuged for 3 min at 10000 rpm at 4° C., and the supernatant was transferred to a liquid phase sample vial for detecting the concentration and purity of the polypeptides using liquid phase chromatography described as below.
Conditions of the reversed phase chromatography Flow rate: 1.0 mL/min; Autosampler temperature: 15° C.; Column temperature: 25° C.; Detection wavelength: 214 nm; Mobile phase A: 100% H2O+0.05% TFA; Mobile phase B: 100% ACN; and Gradient of elution listed in Table 4: […]

[2] = biological target: T1, human amylin receptors (Homo sapiens, UniProt O60896+P30988); assay: Luciferase assay in stably transfected amylin receptor/CRE-luc CHO cell line; format: cell-based; conditions: for Relative activity: EC50 ratio of Cagrilintide to the compound, Cagrilintide 100%; for EC50: amylin receptor/CRE-luc CHO cells, 24 hours incubation, luminescence
T1 construct: host or cells: CHO-K1/Ga15/AMY3 cells, further stably transfected with a CRE-luciferase plasmid
T1 sequence (P30988 25-474): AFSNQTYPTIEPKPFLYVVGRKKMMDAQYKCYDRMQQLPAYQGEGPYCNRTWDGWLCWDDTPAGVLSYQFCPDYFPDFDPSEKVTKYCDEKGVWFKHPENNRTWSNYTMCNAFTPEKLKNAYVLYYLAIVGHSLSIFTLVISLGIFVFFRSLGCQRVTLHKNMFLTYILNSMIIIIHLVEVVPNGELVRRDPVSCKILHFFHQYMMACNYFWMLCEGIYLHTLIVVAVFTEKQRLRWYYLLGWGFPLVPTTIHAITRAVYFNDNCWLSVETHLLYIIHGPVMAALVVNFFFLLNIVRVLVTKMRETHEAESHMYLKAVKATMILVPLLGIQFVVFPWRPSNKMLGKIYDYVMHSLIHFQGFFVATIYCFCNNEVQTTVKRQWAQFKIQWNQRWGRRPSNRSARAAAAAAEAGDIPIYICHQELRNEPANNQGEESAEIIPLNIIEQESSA
T1 sequence (O60896 24-148 partner): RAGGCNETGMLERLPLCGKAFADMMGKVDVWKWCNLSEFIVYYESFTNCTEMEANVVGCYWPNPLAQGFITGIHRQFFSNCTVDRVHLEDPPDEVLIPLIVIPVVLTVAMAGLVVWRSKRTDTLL

Row | Purity from the reversed phase chromatography-214 nm, 0 d [1] | Purity from the reversed phase chromatography-214 nm, 7 d [1] | Purity from the reversed phase chromatography-214 nm, 28 d [1] | Change (7 d − 0 d) [1] | Change (28 d − 0 d) [1] | Relative activity [2] [%] | EC50 [2] [nM] | SMILES
1 | 88.15 | 89.62 | 90.99 | 1.47 | 2.84 | 100 | 0.026 | CC[C@H](C)[C@H](NC(=O)[C@@H]1CCCN1C(=O)[C@H](CCCCN)NC(=O)[C@H](CC(C)C)NC(=O)[C@H](CC(N)=O)NC(=O)[C@H](CC(N)=O)NC(=O)[C@H](CO)NC(=O)[C@H](CO)NC(=O)[C@H](Cc1c[nH]cn1)NC(=O)[C@H](CCCNC(=N)N)NC(=O)[C@H](CC(C)C)NC(=O)[C@H](Cc1ccccc1)NC(=O)[C@H](CC(=O)O)NC(=O)[C@H](C)NC(=O)[C@H](CC(C)C)NC(=O)[C@H](CCCNC(=N)N)NC(=O)[C@H](CCC(N)=O)NC(=O)[C@H](CC(C)C)NC(=O)[C@@H](NC(=O)[C@H](C)NC(=O)[C@@H](NC(=O)[C@H](CO)NC(=O)[C@H](CC(C)C)NC(=O)[C@H](CCC(N)=O)NC(=O)[C@H](CO)NC(=O)[C@H](C)NC(=O)CC[C@H](NC(=O)CCCCCCCCCCCCCCCCCCC(=O)O)C(=O)O)[C@@H](C)O)C(C)C)C(=O)N[C@@H](CC(C)C)C(=O)N1CCC[C@H]1C(=O)N1CCC[C@H]1C(=O)N[C@H](C(=O)N[C@@H](CC(N)=O)C(=O)N[C@H](C(=O)NCC(=O)N[C@@H](CO)C(=O)N[C@@H](CC(N)=O)C(=O)N[C@H](C(=O)N1C[C@H](O)C[C@H]1C(N)=O)[C@@H](C)O)C(C)C)[C@@H](C)O [M9] ({C20 diacid-γGlu}-ASQLSTAVLQRLADFLRHSSNNLKPILPPTNVGSNT[Hyp]-NH2)
2 | 92.36 | 91.35 | 91.34 | −1.01 | −1.02 | 84 | 0.031 | CC[C@H](C)[C@H](NC(=O)[C@@H]1CCCN1C(=O)[C@H](CCCCN)NC(=O)[C@H](CC(C)C)NC(=O)[C@H](CC(N)=O)NC(=O)[C@H](CC(N)=O)NC(=O)[C@H](CO)NC(=O)[C@H](CO)NC(=O)[C@H](Cc1c[nH]cn1)NC(=O)[C@H](CCCNC(=N)N)NC(=O)[C@H](CC(C)C)NC(=O)[C@H](Cc1ccccc1)NC(=O)[C@H](CC(=O)O)NC(=O)[C@H](C)NC(=O)[C@H](CC(C)C)NC(=O)[C@H](CCCNC(=N)N)NC(=O)[C@H](CCC(N)=O)NC(=O)[C@@H](NC(=O)[C@H](C)NC(=O)[C@H](C)NC(=O)[C@@H](NC(=O)[C@H](CO)NC(=O)[C@H](CC(C)C)NC(=O)[C@H](CCC(N)=O)NC(=O)[C@H](CO)NC(=O)[C@H](C)NC(=O)CC[C@H](NC(=O)CCCCCCCCCCCCCCCCCCC(=O)O)C(=O)O)[C@@H](C)O)[C@@H](C)O)C(=O)N[C@@H](CC(C)C)C(=O)N1CCC[C@H]1C(=O)N1CCC[C@H]1C(=O)N[C@H](C(=O)N[C@@H](CC(N)=O)C(=O)N[C@H](C(=O)NCC(=O)N[C@@H](CO)C(=O)N[C@@H](CC(N)=O)C(=O)N[C@H](C(=O)N1C[C@H](O)C[C@H]1C(N)=O)[C@@H](C)O)C(C)C)[C@@H](C)O [M5] ({C20 diacid-γGlu}-ASQLSTAATQRLADFLRHSSNNLKPILPPTNVGSNT[Hyp]-NH2)
3 | 85.15 | 85.16 | 85.44 | 0.01 | 0.29 | 68 | 0.038 | CC[C@H](C)[C@H](NC(=O)[C@@H]1CCCN1C(=O)[C@H](CCCCN)NC(=O)[C@H](CC(C)C)NC(=O)[C@H](CC(N)=O)NC(=O)[C@H](CC(N)=O)NC(=O)[C@H](CO)NC(=O)[C@H](CO)NC(=O)[C@H](Cc1c[nH]cn1)NC(=O)[C@H](CCCNC(=N)N)NC(=O)[C@H](CC(C)C)NC(=O)[C@H](Cc1ccccc1)NC(=O)[C@H](CC(=O)O)NC(=O)[C@H](C)NC(=O)[C@H](CC(C)C)NC(=O)[C@H](CCCNC(=N)N)NC(=O)CNC(=O)[C@H](CC(C)C)NC(=O)[C@@H](NC(=O)[C@H](C)NC(=O)[C@@H](NC(=O)[C@H](CO)NC(=O)[C@H](CC(C)C)NC(=O)[C@H](CCC(N)=O)NC(=O)[C@H](CO)NC(=O)[C@H](C)NC(=O)CC[C@H](NC(=O)CCCCCCCCCCCCCCCCCCC(=O)O)C(=O)O)[C@@H](C)O)C(C)C)C(=O)N[C@@H](CC(C)C)C(=O)N1CCC[C@H]1C(=O)N1CCC[C@H]1C(=O)N[C@H](C(=O)N[C@@H](CC(N)=O)C(=O)N[C@H](C(=O)NCC(=O)N[C@@H](CO)C(=O)N[C@@H](CC(N)=O)C(=O)N[C@H](C(=O)N1C[C@H](O)C[C@H]1C(N)=O)[C@@H](C)O)C(C)C)[C@@H](C)O [M2] ({C20 diacid-γGlu}-ASQLSTAVLGRLADFLRHSSNNLKPILPPTNVGSNT[Hyp]-NH2)
4 | 93 | 91.39 | 91.53 | −1.61 | −1.47 | 39 | 0.066 | CC[C@H](C)[C@H](NC(=O)[C@@H]1CCCN1C(=O)[C@H](CCCCN)NC(=O)[C@H](CC(C)C)NC(=O)[C@H](CC(N)=O)NC(=O)[C@H](CC(N)=O)NC(=O)[C@H](CO)NC(=O)[C@H](CO)NC(=O)[C@H](Cc1c[nH]cn1)NC(=O)[C@H](CCCNC(=N)N)NC(=O)[C@H](CC(C)C)NC(=O)[C@H](Cc1ccccc1)NC(=O)[C@H](CC(=O)O)NC(=O)[C@H](C)NC(=O)[C@H](CC(C)C)NC(=O)[C@H](CCCNC(=N)N)NC(=O)[C@H](CCC(N)=O)NC(=O)[C@@H](NC(=O)[C@@H](NC(=O)[C@H](C)NC(=O)[C@@H](NC(=O)[C@H](CO)NC(=O)[C@H](CC(C)C)NC(=O)[C@H](CCC(N)=O)NC(=O)[C@H](CO)NC(=O)[C@H](C)NC(=O)CC[C@H](NC(=O)CCCCCCCCCCCCCCCCCCC(=O)O)C(=O)O)[C@@H](C)O)C(C)C)[C@@H](C)O)C(=O)N[C@@H](CC(C)C)C(=O)N1CCC[C@H]1C(=O)N1CCC[C@H]1C(=O)N[C@H](C(=O)N[C@@H](CC(N)=O)C(=O)N[C@H](C(=O)NCC(=O)N[C@@H](CO)C(=O)N[C@@H](CC(N)=O)C(=O)N[C@H](C(=O)N1C[C@H](O)C[C@H]1C(N)=O)[C@@H](C)O)C(C)C)[C@@H](C)O [M7] ({C20 diacid-γGlu}-ASQLSTAVTQRLADFLRHSSNNLKPILPPTNVGSNT[Hyp]-NH2)
5 | 95 | 94.22 | 92.25 | −0.78 | −2.75 | 32 | 0.081 | CC[C@H](C)[C@H](NC(=O)[C@H](CC(=O)O)NC(=O)[C@H](CCCNC(=N)N)NC(=O)[C@H](CC(=O)O)NC(=O)[C@H](CCCNC(=N)N)NC(=O)[C@H](CC(=O)O)NC(=O)[C@@H](NC(=O)[C@H](Cc1ccccc1)NC(=O)[C@H](Cc1c[nH]cn1)NC(=O)[C@H](CCCNC(=N)N)NC(=O)[C@H](CC(C)C)NC(=O)[C@H](Cc1ccccc1)NC(=O)[C@H](CC(=O)O)NC(=O)[C@H](C)NC(=O)[C@H](CC(C)C)NC(=O)[C@H](CCCNC(=N)N)NC(=O)CNC(=O)[C@H](CC(C)C)NC(=O)[C@@H](NC(=O)[C@H](C)NC(=O)[C@@H](NC(=O)[C@H](CO)NC(=O)[C@H](CC(C)C)NC(=O)[C@H](CCC(N)=O)NC(=O)[C@H](CO)NC(=O)[C@H](C)NC(=O)CC[C@H](NC(=O)CCCCCCCCCCCCCCCCCCC(=O)O)C(=O)O)[C@@H](C)O)C(C)C)[C@@H](C)O)C(=O)N[C@@H](CC(C)C)C(=O)N1CCC[C@H]1C(=O)N1CCC[C@H]1C(=O)N[C@H](C(=O)N[C@@H](CC(N)=O)C(=O)N[C@H](C(=O)NCC(=O)N[C@@H](CO)C(=O)N[C@@H](CC(N)=O)C(=O)N[C@H](C(=O)N1CCC[C@H]1C(N)=O)[C@@H](C)O)C(C)C)[C@@H](C)O [M4] ({C20 diacid-γGlu}-ASQLSTAVLGRLADFLRHFTDRDRDILPPTNVGSNTP-NH2)
